Results taken from US20130157954A1, “METHODS FOR TREATMENT OR PROPHYLAXIS OF KIDNEY OR LIVER DYSFUNCTION” (NPS PHARMACEUTICALS, INC., priority 2010, published 2013).

Experiment: Example 1: kidney biomarkers (urea nitrogen, creatinine, GFR) in short bowel syndrome patients, every four weeks for 24 weeks; also sorted by >5% change from baseline
Type: in vivo, Human
Parameters: CREATININE (RATE BLANKED) Change from Baseline Median / GFR Median / GFR Change from Baseline Median / UREA NITROGEN Median / UREA NITROGEN Change from Baseline Median: unit not given here
Settings: 0.05 mg/kg/day
Experimental: Human patients with short bowel syndrome were divided into three groups: a control group (16 total individuals) to receive placebo, an experimental group (35 total individuals) to receive teduglutide at 0.05 mg/kg/day throughout the study, and an experimental group (32 total individuals) to receive teduglutide at 0.1 mg/kg/day throughout the study. Patients were treated by subcutaneous injection of placebo or the appropriate dose of teduglutide. As individuals with short bowel syndrome are likely to experience associated liver and kidney disease, known biomarkers of liver and kidney function were monitored every four weeks, for 24 weeks. The liver biomarkers tested included total bilirubin, ALT and AST and ALP. The kidney biomarkers tested included urea nitrogen, creatinine and GFR. Before administration of placebo or teduglutide, diagnostic biomarker levels were tested to establish a baseline for each individual.
To visualize the effect of GLP-2 on the levels of the diagnostic biomarkers, the average change from baseline was calculated for the placebo and teduglutide treated groups for each visit after a baseline was established. The average change from baseline of each group is depicted in FIGS. 1-7. The numerical figures for each diagnostic biomarker at each time point are depicted in Table 1.
The raw data for this sorting is reproduced in Table 2 below.

Compound: CC[C@H](C)[C@H](NC(=O)[C@H](Cc1ccccc1)NC(=O)[C@H](CC(=O)O)NC(=O)[C@H](CCCNC(=N)N)NC(=O)[C@H](C)NC(=O)[C@H](C)NC(=O)[C@H](CC(C)C)NC(=O)[C@H](CC(N)=O)NC(=O)[C@H](CC(=O)O)NC(=O)[C@H](CC(C)C)NC(=O)[C@@H](NC(=O)[C@@H](NC(=O)[C@H](CC(N)=O)NC(=O)[C@H](CCSC)NC(=O)[C@H](CCC(=O)O)NC(=O)[C@H](CC(=O)O)NC(=O)[C@H](CO)NC(=O)[C@H](Cc1ccccc1)NC(=O)[C@H](CO)NC(=O)CNC(=O)[C@H](CC(=O)O)NC(=O)CNC(=O)[C@@H](N)Cc1c[nH]cn1)[C@@H](C)O)[C@@H](C)CC)C(=O)N[C@@H](CC(N)=O)C(=O)N[C@@H](Cc1c[nH]c2ccccc12)C(=O)N[C@@H](CC(C)C)C(=O)N[C@H](C(=O)N[C@@H](CCC(N)=O)C(=O)N[C@H](C(=O)N[C@@H](CCCCN)C(=O)N[C@H](C(=O)N[C@H](C(=O)N[C@@H](CC(=O)O)C(=O)O)[C@@H](C)O)[C@@H](C)CC)[C@@H](C)O)[C@@H](C)CC [teduglutide]
- CREATININE (RATE BLANKED) Change from Baseline Median (DW4): 1.5
- CREATININE (RATE BLANKED) Median (DW4): 80 µmol/L
- GFR Change from Baseline Median (DW4): −0.6
- GFR Median (DW4): 77.0
- UREA NITROGEN Change from Baseline Median (DW4): −0.4
- UREA NITROGEN Median (DW4): 4.9
- CREATININE (RATE BLANKED) Change from Baseline Median (DW8): 0.0
- CREATININE (RATE BLANKED) Median (DW8): 71 µmol/L
- GFR Change from Baseline Median (DW8): 1.1
- UREA NITROGEN Change from Baseline Median (DW8): −0.3
- UREA NITROGEN Median (DW8): 5.2
- CREATININE (RATE BLANKED) Change from Baseline Median (DW12): 8.0
- CREATININE (RATE BLANKED) Median (DW12): 80 µmol/L
- GFR Change from Baseline Median (DW12): −5.0
- UREA NITROGEN Change from Baseline Median (DW12): −0.5
- UREA NITROGEN Median (DW12): 4.4
- CREATININE (RATE BLANKED) Change from Baseline Median (DW16): 0.0
- CREATININE (RATE BLANKED) Median (DW16): 79 µmol/L
- GFR Change from Baseline Median (DW16): 0.9
- UREA NITROGEN Change from Baseline Median (DW16): −0.3
- UREA NITROGEN Median (DW16): 4.4
- CREATININE (RATE BLANKED) Change from Baseline Median (DW20): 0.0
- GFR Change from Baseline Median (DW20): 0.9
- GFR Median (DW20): 74.0
- UREA NITROGEN Change from Baseline Median (DW20): −0.3
- UREA NITROGEN Median (DW20): 5.2
- CREATININE (RATE BLANKED) Change from Baseline Median (DW 24): −0.5
- CREATININE (RATE BLANKED) Median (DW 24): 80 µmol/L
- GFR Change from Baseline Median (DW 24): 1.7
- UREA NITROGEN Change from Baseline Median (DW 24): −0.7
- UREA NITROGEN Median (DW 24): 4.9
- CREATININE (RATE BLANKED) change from baseline <−5%, number of patients (week 4): 7
- CREATININE (RATE BLANKED) change from baseline <−5%, percent of patients (week 4): (20.0%)
- CREATININE (RATE BLANKED) change from baseline >5%, number of patients (week 4): 14
- CREATININE (RATE BLANKED) change from baseline >5%, percent of patients (week 4): (40.0%)
- CREATININE (RATE BLANKED) change from baseline −5% <= and <=5%, number of patients (week 4): 9
- CREATININE (RATE BLANKED) change from baseline −5% <= and <=5%, percent of patients (week 4): (25.7%)
- GFR change from baseline <−5%, number of patients (week 4): 13
- GFR change from baseline <−5%, percent of patients (week 4): (37.1%)
- GFR change from baseline >5%, number of patients (week 4): 8
- GFR change from baseline >5%, percent of patients (week 4): (22.9%)
- GFR change from baseline −5% <= and <=5%, number of patients (week 4): 9
- GFR change from baseline −5% <= and <=5%, percent of patients (week 4): (25.7%)
- UREA NITROGEN change from baseline <−5%, number of patients (week 4): 16
- UREA NITROGEN change from baseline <−5%, percent of patients (week 4): (45.7%)
- UREA NITROGEN change from baseline >5%, number of patients (week 4): 7
- UREA NITROGEN change from baseline >5%, percent of patients (week 4): (20.0%)
- UREA NITROGEN change from baseline −5% <= and <=5%, number of patients (week 4): 7
- UREA NITROGEN change from baseline −5% <= and <=5%, percent of patients (week 4): (20.0%)
- CREATININE (RATE BLANKED) change from baseline <−5%, number of patients (week 8): 11
- CREATININE (RATE BLANKED) change from baseline <−5%, percent of patients (week 8): (31.4%)
- CREATININE (RATE BLANKED) change from baseline >5%, number of patients (week 8): 10
- CREATININE (RATE BLANKED) change from baseline >5%, percent of patients (week 8): (28.6%)
- CREATININE (RATE BLANKED) change from baseline −5% <= and <=5%, number of patients (week 8): 8
- CREATININE (RATE BLANKED) change from baseline −5% <= and <=5%, percent of patients (week 8): (22.9%)
- GFR change from baseline <−5%, number of patients (week 8): 9
- GFR change from baseline <−5%, percent of patients (week 8): (25.7%)
- GFR change from baseline >5%, number of patients (week 8): 12
- GFR change from baseline >5%, percent of patients (week 8): (34.3%)
- GFR change from baseline −5% <= and <=5%, number of patients (week 8): 7
- GFR change from baseline −5% <= and <=5%, percent of patients (week 8): (20.0%)
- UREA NITROGEN change from baseline <−5%, number of patients (week 8): 14
- UREA NITROGEN change from baseline <−5%, percent of patients (week 8): (40.0%)
- UREA NITROGEN change from baseline >5%, number of patients (week 8): 10
- UREA NITROGEN change from baseline >5%, percent of patients (week 8): (28.6%)
- UREA NITROGEN change from baseline −5% <= and <=5%, number of patients (week 8): 5
- UREA NITROGEN change from baseline −5% <= and <=5%, percent of patients (week 8): (14.3%)
- CREATININE (RATE BLANKED) change from baseline <−5%, number of patients (week 12): 7
- CREATININE (RATE BLANKED) change from baseline <−5%, percent of patients (week 12): (20.0%)
